Assays:
Format in all cases: cell-based
[1] = system: surface calreticulin on A2780wt cells; experiment: Immunofluorescent surface calreticulin staining, A2780wt; conditions: oxaliplatin at 1 µM for 24 h
Method: (§1) Oxaliplatin, a known metal‐based ICD inducer, was included for comparison.
(§2) A2780wt or A2780cis cells were seeded at a density of 1.2 × 10^5 on cover slips and allowed to adhere for 24 h. […] Subsequently, the cells were washed again three times with PBS and they were incubated after adding the secondary antibody (Alexa‐Fluor‐conjugated anti‐rabbit, 1:200), for 45 min at rt. Subsequently, the cells were washed again three times with PBS and they were mounted on slides with mounting medium. After letting them dry overnight, visualization was performed by spinning disk confocal microscopy. […] Acquired images were background subtracted, individual cells were manually segmented, and fluorescence intensity for the calreticulin staining was quantified with a FIJI software. Two repetitions of the experiment were performed, where at least 20 cells per condition were analyzed and the mean intensity of each sample was calculated, respectively.

[2] = system: surface calreticulin on A2780cis cells; experiment: Immunofluorescent surface calreticulin staining, A2780cis; conditions: oxaliplatin at 1 µM for 24 h
Method: as §1, §2

[3] = system: A2780cis cells; experiment: MTT assay, A2780cis cells
Method: (§3) Carboplatin, a second‐generation platinum drug commonly used as part of standard first‐line chemotherapy for ovarian carcinoma, was examined as a reference compound due to its clinical relevance. Additionally, the nonmalignant bone marrow stromal cell line HS‐5 was included as a control to assess specificity of the complexes toward cancer cells.
(§4) Unloaded BGs (4 × 10^8 EcN or 2 × 10^8 Ec NM522, which is equivalent to the highest tested BG concentration) were tested as controls.
(§5) The exponentially growing cells were seeded at a density of 8 × 10^3 cells/well (A2780wt/cis) or 1 × 10^4 cells/well (HS‐5), respectively, into clear flat‐bottom 96‐well plates in triplicates. […] After another 72 h of incubation, the cellular metabolic activity was measured as an indicator of cell viability employing an MTT assay. Hereby, 20 µL of a 5 mg/mL MTT solution was added to each well, respectively. After 3 h of incubation, the medium was discarded, and the formazan crystals formed were dissolved in DMSO for 15 min with gentle shaking. […] The OD at 620 nm was subtracted from the OD at 595 nm. The OD of the medium was subtracted to exclude the unspecific staining caused by FCS‐containing medium. Cells treated with vehicle control (0.1% DMF) only were set at 100% metabolic activity. The IC50 values were calculated with Prism 8.0 (GraphPad Software Inc., Boston, MA, USA) using nonlinear regression. Significance was evaluated via a one sample t‐test performed with Prism 8.0.

[4] = system: A2780cis cells; experiment: Annexin V/PI staining and FACS analysis, A2780cis; conditions: reference at 50 µM, 24 h
Method: (§6) Therefore, we aimed to evaluate the apoptosis and necrosis inducing potential of complexes 1–4 via a fluorescent‐activated cell sorting (FACS) analysis with Annexin V/propidium iodide (PI) staining in A2780wt and A2780cis cells. Cells were treated for 24 h with both the free and BG‐loaded forms of each compound at 25 µM. Carboplatin (50 µM) served as a reference.
(§7) To evaluate the mode of cell death, a FACS measurement after staining with Annexin V and PI was conducted. First, 0.3 × 10^6 A2780wt or A2780cis cells were seeded into 12‐well plates and were allowed to adhere for 24 h. The compounds were added at 25 µM, either diluted from a freshly prepared DMF stock solution (0.1% DMF) or freshly thawed when loaded in BGs. After 24 h of incubation, the cells were harvested with accutase and washed with PBS. The cells were then resuspended in 200 µL of PBS each and 1 µL of PI solution (Sigma‐Aldrich, Taufkirchen, Germany) and 1 µL of Annexin V‐FITC (MabTag GmbH, Friesoythe, Germany) were added to each sample. These were then incubated for 20 min at rt under light‐protected conditions and afterward transferred onto ice. The percentage of apoptotic cells was determined by analyzing Annexin V positive /PI negative cells using a BD LSRFortessa flow cytometer and BD FACSDiva software (both BD Biosciences, San Jose, CA, USA). The apoptosis analysis included the evaluation of early apoptosis (Annexin V positive/PI negative) and late apoptosis/necrosis (Annexin V positive /PI positive).

[5] = system: A2780wt cells; experiment: Comet assay (intracellular DNA damage); conditions: 50 µM, 48 h incubation
Method: Given that platinum‐based drugs are known to commonly induce DNA damage, a comet assay was conducted using A2780wt cells. This assay detects DNA damage such as DNA single/double strand breaks and DNA fragmentation, a common feature of apoptosis. […] DMF (0.1%)‐treated cells were used as a negative control to establish baseline DNA integrity.
Cellular DNA damage can be visualized by employing a comet assay, which is a single cell gel electrophoresis assay. Hereby, A2780wt cells were seeded at a density of 2 × 10^6 into 25 cm^2 flasks. After letting the cells adhere for 24 h in a humidified atmosphere, the cell culture medium was exchanged for medium containing the respective compound. The cells were then incubated for 48 h with the platinum complexes or 4 h with etoposide, respectively. After incubation, the cell growth was stopped by removing the compound‐containing medium, washing the cells with phosphate‐buffered saline (PBS) and detaching them with a rubber policeman. The detached cells were then centrifuged at 700g for 2 min and the resulting pellet was then washed with 5 mL of PBS. After that, the cells were adjusted to a concentration of 1 × 10^6 cells/mL and were resuspended in ice cold PBS. A total of 75 µL of liquified agarose per condition was transferred onto the slide to create a base layer. This base layer was solidified by transferring the slide to 4°C for 15 min. Afterwards, 10 µL of the above‐mentioned cell suspension in PBS were mixed with 90 µL of agarose. A total of 75 µL of this was added to each base layer, respectively. This layer was also allowed to solidify at 4°C for 15 min. The slide was then transferred to a small basin which contained pre‐chilled lysis buffer (14.6 g NaCl, 20 mL EDTA solution, 10 mL lysis solution, 10 mL DMSO, 60 mL deionized H2O), where it remained for 45 min in the dark at 4°C. The lysis buffer was then aspirated and exchanged with a pre‐chilled alkaline solution (1.2 g NaOH, 0.2 mL EDTA solution, 100 mL deionized H2O), where it remained for further 30 min in the dark at 4°C. The slide was then transferred to a horizontal electrophoresis chamber which was filled with cold alkaline solution. The electrophoresis conditions were set to 1.5 V/cm and 300 mA for 20 min. After the electrophoresis, the slide was transferred into a small basin containing pre‐chilled, deionized H2O. After 2 min, the water was aspirated and this washing step was repeated twice more. After the final rinse, the slide was submerged in 70% ethanol for 5 min. Once the slide has dried, 100 µL of diluted Vista Green DNA Dye was added to each well. After 15 min of incubation, the slides were analyzed on an IX‐70 epifluorescence microscope (Olympus, Shinjuku, Japan) using a FITC filter.

[6] = system: A2780wt cells; experiment: Annexin V/PI staining and FACS analysis, A2780wt; conditions: reference at 50 µM, 24 h
Method: as §6, §7

[7] = system: A2780wt cells; experiment: MTT assay, A2780wt cells; conditions: MTT assay, 72 h exposure
Method: as §3, §4, §5

[8] = system: HS‐5 cells; experiment: MTT assay, HS‐5 cells; conditions: 72 h exposure, nonmalignant bone marrow stromal cells
Method: as §3
The exponentially growing cells were seeded at a density of 8 × 10^3 cells/well (A2780wt/cis) or 1 × 10^4 cells/well (HS‐5), respectively, into clear flat‐bottom 96‐well plates in triplicates. Following 24 h of incubation for the adherence of the cells at 37°C in a humidified atmosphere (5% CO2/95% air), the test compounds were added. […] For the evaluation of the cell growth inhibition by the compounds loaded in BGs, the BG suspensions were directly diluted in RPMI 1640 to the desired testing concentration (25 µM). After another 72 h of incubation, the cellular metabolic activity was measured as an indicator of cell viability employing an MTT assay. Hereby, 20 µL of a 5 mg/mL MTT solution was added to each well, respectively. After 3 h of incubation, the medium was discarded, and the formazan crystals formed were dissolved in DMSO for 15 min with gentle shaking. Afterward, the optical density (OD) was measured at 595 and 620 nm, respectively on an EnSpire Multimode Plate Reader (revvity, Waltham, MA, USA). The OD at 620 nm was subtracted from the OD at 595 nm. The OD of the medium was subtracted to exclude the unspecific staining caused by FCS‐containing medium. Cells treated with vehicle control (0.1% DMF) only were set at 100% metabolic activity. The IC50 values were calculated with Prism 8.0 (GraphPad Software Inc., Boston, MA, USA) using nonlinear regression. Significance was evaluated via a one sample t‐test performed with Prism 8.0.

SMILES	x‐fold intensity of surface calreticulin compared to untreated cells [1] [x‐fold]	x‐fold intensity of surface calreticulin compared to untreated cells [2] [x‐fold]	Resistance factor RF = IC50(A2780cis)/IC50(A2780wt) ([3]; 72 h)	IC50 ([3]; 72 h exposure) [µM]	early apoptosis [4]	late apoptosis/ necrosis [4]	intracellular DNA damage (comet formation) [5]	early apoptosis [6]	late apoptosis/ necrosis [6]	IC50 [7] [µM]	IC50 [8] [µM]
O=C1[O][Pt]2([NH][C@@H]3CCCC[C@H]3[NH]2)[O]C1=O [oxaliplatin, (SP‐4‐2)‐(1R,2R‐diaminocyclohexane)oxalatoplatinum(II), reference compound]	0.86 ± 0.24	1.36 ± 0.24	–	–	–	–	–	–	–	–	–
[NH2][Pt]1([NH2])[O]C(=O)C2(CCC2)C(=O)[O]1 [Carboplatin, (SP‐4‐2)‐diammine(1,1‐cyclobutanedicarboxylato)platinum(II), reference compound]	–	–	3.1	104 ± 11.5	6.47 ± 1.75	12.6 ± 1.17	did not show any evidence of comet formation	7.90 ± 0.29	16.8 ± 0.69	33.6 ± 2.1	24.4 ± 0.99

Source: publication PMC12476087, “Loading of Dicarboxylatoplatinum(II)‐NHC Complexes in Bacterial Ghosts as an Advanced Development in Cancer Therapy” (Archiv Der Pharmazie, 2025)
